Measurements reported in paper PMC10008561 (Nature Communications, 2023).
Where “and” joins values, the source holds several entries; their conditions need not be identical. Identical values can stand only once.

Columns and labels:
[1] = molecular target: T1, MOR (Homo sapiens, UniProt P35372); test: BRET-Gi1 protein activation; type: cell-based
T1 construct: expressed in transfected cells; host or cells: HEK293

[2] = molecular target: T2, human KOR (Homo sapiens, UniProt P41145, W287A); test: cell-based; conditions: HEK-293T
T2 construct: expressed in transfected cells; host or cells: HEK 293T (ATCC, CRL-3216)

[3] = molecular target: T3, human KOR (Homo sapiens, UniProt P41145, E209A); test: cell-based; conditions: HEK-293T
T3 construct: expressed in transfected cells; host or cells: HEK 293T (ATCC, CRL-3216)

[4] = molecular target: human KOR (Homo sapiens, UniProt P41145); test: cell-based
[5] = molecular target: T4, human KOR (Homo sapiens, UniProt P41145, S324C); test: cell-based; conditions: HEK-293T
T4 construct: expressed in transfected cells; host or cells: HEK 293T (ATCC, CRL-3216)

[6] = molecular target: T5, human KOR (Homo sapiens, UniProt P41145, Q115N); test: cell-based; conditions: HEK-293T
T5 construct: expressed in transfected cells; host or cells: HEK 293T (ATCC, CRL-3216)

[7] = molecular target: T6, human KOR (Homo sapiens, UniProt P41145, F114L); test: cell-based; conditions: HEK-293T
T6 construct: expressed in transfected cells; host or cells: HEK 293T (ATCC, CRL-3216)

[8] = molecular target: T7, human KOR (Homo sapiens, UniProt P41145, W124L); test: cell-based; conditions: HEK-293T
T7 construct: expressed in transfected cells; host or cells: HEK 293T (ATCC, CRL-3216)

[9] = molecular target: T8, human KOR (Homo sapiens, UniProt P41145, G319L); test: cell-based; conditions: HEK-293T
T8 construct: expressed in transfected cells; host or cells: HEK 293T (ATCC, CRL-3216)

[10] = molecular target: T9, human KOR (Homo sapiens, UniProt P41145, Y320L); test: cell-based; conditions: HEK-293T
T9 construct: expressed in transfected cells; host or cells: HEK 293T (ATCC, CRL-3216)

[11] = molecular target: T10, human KOR (Gi1) (Homo sapiens, UniProt P41145, D266A); test: cell-based; conditions: HEK-293T
T10 construct: expressed in transfected cells; host or cells: HEK293T

[12] = molecular target: T11, human KOR (Gi1) (Homo sapiens, UniProt P41145, D155A); test: cell-based; conditions: HEK-293T
T11 construct: expressed in transfected cells; host or cells: HEK293T

[13] = molecular target: T12, human KOR (Gi1) (Homo sapiens, UniProt P41145, G319L); test: cell-based; conditions: HEK-293T
T12 construct: expressed in transfected cells; host or cells: HEK293T

[14] = molecular target: T13, human KOR (Gi1) (Homo sapiens, UniProt P41145, D334A); test: cell-based; conditions: HEK-293T
T13 construct: expressed in transfected cells; host or cells: HEK293T

[15] = molecular target: T14, human KOR (Gi1) (Homo sapiens, UniProt P41145, Y139L); test: cell-based; conditions: HEK-293T
T14 construct: expressed in transfected cells; host or cells: HEK293T

[16] = molecular target: T15, human KOR (Gi1) (Homo sapiens, UniProt P41145, R257A); test: cell-based; conditions: HEK-293T
T15 construct: expressed in transfected cells; host or cells: HEK293T

[17] = molecular target: T16, human KOR (Gi1) (Homo sapiens, UniProt P41145, D105A); test: cell-based; conditions: HEK-293T
T16 construct: expressed in transfected cells; host or cells: HEK293T

[18] = molecular target: T17, human KOR (Gi1) (Homo sapiens, UniProt P41145, N141A); test: cell-based; conditions: HEK-293T
T17 construct: expressed in transfected cells; host or cells: HEK293T

[19] = molecular target: T18, human KOR (Gi1) (Homo sapiens, UniProt P41145, L253A); test: cell-based; conditions: HEK-293T
T18 construct: expressed in transfected cells; host or cells: HEK293T

[20] = molecular target: T19, human KOR (Gi1) (Homo sapiens, UniProt P41145, T94V); test: cell-based; conditions: HEK-293T
T19 construct: expressed in transfected cells; host or cells: HEK293T

[21] = molecular target: T20, human KOR (Gi1) (Homo sapiens, UniProt P41145, R274A); test: cell-based; conditions: HEK-293T
T20 construct: expressed in transfected cells; host or cells: HEK293T

[22] = molecular target: T21, human KOR (Gi1) (Homo sapiens, UniProt P41145, N326A); test: cell-based; conditions: HEK-293T
T21 construct: expressed in transfected cells; host or cells: HEK293T

[23] = molecular target: T22, human KOR (Gi1) (Homo sapiens, UniProt P41145, R271A); test: cell-based; conditions: HEK-293T
T22 construct: expressed in transfected cells; host or cells: HEK293T

[24] = molecular target: T23, human KOR (Gi1) (Homo sapiens, UniProt P41145, R170A); test: cell-based; conditions: HEK-293T
T23 construct: expressed in transfected cells; host or cells: HEK293T

[25] = molecular target: T24, human KOR (Gi1) (Homo sapiens, UniProt P41145, F114L); test: cell-based; conditions: HEK-293T
T24 construct: expressed in transfected cells; host or cells: HEK293T

[26] = molecular target: T25, human KOR (Gi1) (Homo sapiens, UniProt P41145, Y320L); test: cell-based; conditions: HEK-293T
T25 construct: expressed in transfected cells; host or cells: HEK293T

[27] = molecular target: T26, human KOR (Gi1) (Homo sapiens, UniProt P41145, K200A); test: cell-based; conditions: HEK-293T
T26 construct: expressed in transfected cells; host or cells: HEK293T

[28] = molecular target: T27, human KOR (Gi1) (Homo sapiens, UniProt P41145, Q115N); test: cell-based; conditions: HEK-293T
T27 construct: expressed in transfected cells; host or cells: HEK293T

[29] = molecular target: T28, human KOR (Gi1) (Homo sapiens, UniProt P41145, F283A); test: cell-based; conditions: HEK-293T
T28 construct: expressed in transfected cells; host or cells: HEK293T

[30] = molecular target: T29, human KOR (Gi1) (Homo sapiens, UniProt P41145); test: cell-based
T29 construct: expressed in transfected cells; host or cells: HEK293T
T29 sequence (P41145 whole entry): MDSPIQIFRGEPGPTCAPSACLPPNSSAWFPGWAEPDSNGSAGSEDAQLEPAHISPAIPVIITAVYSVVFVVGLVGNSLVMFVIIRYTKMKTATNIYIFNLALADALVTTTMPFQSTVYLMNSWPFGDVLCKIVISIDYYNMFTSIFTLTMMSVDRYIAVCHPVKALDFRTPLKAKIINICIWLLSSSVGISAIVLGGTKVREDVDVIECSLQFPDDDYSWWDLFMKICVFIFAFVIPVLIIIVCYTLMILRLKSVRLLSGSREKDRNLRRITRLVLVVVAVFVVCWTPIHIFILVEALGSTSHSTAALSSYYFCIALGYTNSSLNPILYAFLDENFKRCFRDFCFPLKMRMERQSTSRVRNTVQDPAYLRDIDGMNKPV

T7 sequence (P41145 whole entry W124L): as the sequence (P41145 whole entry) above, with W124L counted along it
T8 sequence (P41145 whole entry G319L): as the sequence (P41145 whole entry) above, with G319L counted along it
T3 sequence (P41145 whole entry E209A): as the sequence (P41145 whole entry) above, with E209A counted along it
T6 sequence (P41145 whole entry F114L): as the sequence (P41145 whole entry) above, with F114L counted along it
T9 sequence (P41145 whole entry Y320L): as the sequence (P41145 whole entry) above, with Y320L counted along it
T19 sequence (P41145 whole entry T94V): as the sequence (P41145 whole entry) above, with T94V counted along it
T23 sequence (P41145 whole entry R170A): as the sequence (P41145 whole entry) above, with R170A counted along it
T11 sequence (P41145 whole entry D155A): as the sequence (P41145 whole entry) above, with D155A counted along it
T22 sequence (P41145 whole entry R271A): as the sequence (P41145 whole entry) above, with R271A counted along it
T4 sequence (P41145 whole entry S324C): as the sequence (P41145 whole entry) above, with S324C counted along it
T13 sequence (P41145 whole entry D334A): as the sequence (P41145 whole entry) above, with D334A counted along it
T14 sequence (P41145 whole entry Y139L): as the sequence (P41145 whole entry) above, with Y139L counted along it
T2 sequence (P41145 whole entry W287A): as the sequence (P41145 whole entry) above, with W287A counted along it
T18 sequence (P41145 whole entry L253A): as the sequence (P41145 whole entry) above, with L253A counted along it
Chain of human KOR (Homo sapiens, UniProt P41145) (P41145 whole entry): as the sequence (P41145 whole entry) above
T5 sequence (P41145 whole entry Q115N): as the sequence (P41145 whole entry) above, with Q115N counted along it
T27 sequence (P41145 whole entry Q115N): as the sequence (P41145 whole entry) above, with Q115N counted along it
T1 sequence (P35372 whole entry): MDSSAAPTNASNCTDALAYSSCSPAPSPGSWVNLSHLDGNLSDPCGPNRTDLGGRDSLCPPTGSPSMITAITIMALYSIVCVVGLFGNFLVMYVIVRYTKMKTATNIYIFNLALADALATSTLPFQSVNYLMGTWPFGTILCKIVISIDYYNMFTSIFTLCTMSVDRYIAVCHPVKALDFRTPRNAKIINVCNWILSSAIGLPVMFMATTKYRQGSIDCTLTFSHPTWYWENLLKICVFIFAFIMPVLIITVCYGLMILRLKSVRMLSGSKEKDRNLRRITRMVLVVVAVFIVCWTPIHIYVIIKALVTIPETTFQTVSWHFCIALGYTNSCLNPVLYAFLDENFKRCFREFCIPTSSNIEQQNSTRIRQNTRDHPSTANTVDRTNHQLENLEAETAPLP
T16 sequence (P41145 whole entry D105A): as the sequence (P41145 whole entry) above, with D105A counted along it
T17 sequence (P41145 whole entry N141A): as the sequence (P41145 whole entry) above, with N141A counted along it
T12 sequence (P41145 whole entry G319L): as the sequence (P41145 whole entry) above, with G319L counted along it
T21 sequence (P41145 whole entry N326A): as the sequence (P41145 whole entry) above, with N326A counted along it
T28 sequence (P41145 whole entry F283A): as the sequence (P41145 whole entry) above, with F283A counted along it
T15 sequence (P41145 whole entry R257A): as the sequence (P41145 whole entry) above, with R257A counted along it
T10 sequence (P41145 whole entry D266A): as the sequence (P41145 whole entry) above, with D266A counted along it
T24 sequence (P41145 whole entry F114L): as the sequence (P41145 whole entry) above, with F114L counted along it
T20 sequence (P41145 whole entry R274A): as the sequence (P41145 whole entry) above, with R274A counted along it
T26 sequence (P41145 whole entry K200A): as the sequence (P41145 whole entry) above, with K200A counted along it
T25 sequence (P41145 whole entry Y320L): as the sequence (P41145 whole entry) above, with Y320L counted along it

Compound CN(C(=O)/C=C/c1ccoc1)[C@@H]1CC[C@@]2(O)[C@H]3Cc4ccc(O)c5c4[C@@]2(CCN3CC2CC2)[C@H]1O5 [Nalfurafine, nalfurafine] has an EC50 [1] of 5.13 nM, an Emax [2] of 98 ± 4% and an Emax [3] of 100 ± 2%. It also gave an activation at 1 pM ([3]; read-out: cAMP response) of 28.4%, an activation at 3.162 pM ([3]; read-out: cAMP response) of 77.1% and an activation at 10 pM ([3]; read-out: cAMP response) of 90.6%. For the same compound, the activation at 31.62 pM ([3]; read-out: cAMP response) was 94.9%, the activation at 0.0001 µM ([3]; read-out: cAMP response) was 99.2% and the activation at 0.001 µM ([3]; read-out: cAMP response) was 99.5%. It also gave an activation at 0.01 µM ([3]; read-out: cAMP response) of 101%, an activation at 0.1 µM ([3]; read-out: cAMP response) of 100% and an activation at 1 µM ([3]; read-out: cAMP response) of 98.2%. For the same compound, the activation at […] ([3]; read-out: cAMP response) was 96.6% and 99.9% and 99.6% and 98.7%, the reduction of potency [4] was 5 fold and the Emax [5] was 99 ± 2%. For the same compound, the Emax [6] was 98 ± 3%, the Emax [7] was 97 ± 4% and the activation at 3.162 pM ([7]; read-out: cAMP response) was 9.34%. The activation at 31.62 pM ([7]; read-out: cAMP response) was 29.6%, the activation at 0.0001 µM ([7]; read-out: cAMP response) was 36.4% and the activation at 0.001 µM ([7]; read-out: cAMP response) was 68%. For the same compound, the activation at 0.01 µM ([7]; read-out: cAMP response) was 90.9%, the activation at 0.1 µM ([7]; read-out: cAMP response) was 99.9% and the activation at 1 µM ([7]; read-out: cAMP response) was 97.6%. The activation at […] ([7]; read-out: cAMP response) was 66.6% and 88.8% and 97.4% and 103%, the Emax [8] was 98 ± 3% and the activation at 10 pM ([8]; read-out: cAMP response) was 17.5%. It also gave an activation at 0.0001 µM ([8]; read-out: cAMP response) of 29.6%, an activation at 0.001 µM ([8]; read-out: cAMP response) of 65.5% and an activation at 0.01 µM ([8]; read-out: cAMP response) of 88.1%. The activation at 0.1 µM ([8]; read-out: cAMP response) was 106%, the activation at 1 µM ([8]; read-out: cAMP response) was 99.8% and the activation at […] ([8]; read-out: cAMP response) was 45.8% and 75.2% and 98.3% and 97.1%. The Emax [9] was 103 ± 4%, the activation at 1 pM ([9]; read-out: cAMP response) was 18.4% and the activation at 31.62 pM ([9]; read-out: cAMP response) was 24%. The activation at 0.0001 µM ([9]; read-out: cAMP response) was 46%, the activation at 0.001 µM ([9]; read-out: cAMP response) was 62.9% and the activation at 0.01 µM ([9]; read-out: cAMP response) was 94.9%. For the same compound, the activation at 0.1 µM ([9]; read-out: cAMP response) was 107%, the activation at 1 µM ([9]; read-out: cAMP response) was 104% and the activation at […] ([9]; read-out: cAMP response) was 44.6% and 75.9% and 100%. For the same compound, the Emax [10] was 105 ± 2%, the activation at 1 pM ([10]; read-out: cAMP response) was 16.5% and the activation at 3.162 pM ([10]; read-out: cAMP response) was 13.2%. It also gave an activation at 10 pM ([10]; read-out: cAMP response) of 16.1%, an activation at 31.62 pM ([10]; read-out: cAMP response) of 35.7% and an activation at 0.0001 µM ([10]; read-out: cAMP response) of 59%. It also gave an activation at 0.001 µM ([10]; read-out: cAMP response) of 95.7%, an activation at 0.01 µM ([10]; read-out: cAMP response) of 103% and an activation at 0.1 µM ([10]; read-out: cAMP response) of 105%. For the same compound, the activation at 1 µM ([10]; read-out: cAMP response) was 105%, the activation at […] ([10]; read-out: cAMP response) was 78.6% and 99.7% and 105% (2×) and the Emax [11] was 106%. The Emax [12] was 79.1%, the Emax [13] was 116% and the Emax [14] was 77.5%. The Emax [15] was 96.7%, the Emax [16] was 99.5% and the Emax [17] was 94.3%. For the same compound, the Emax [18] was 101%, the Emax [19] was 106% and the Emax [20] was 99.2%. It also gave an Emax [21] of 100%, an Emax [22] of 108% and an Emax [23] of 105%. It also gave an Emax [24] of 58.7%, an Emax [25] of 65.5% and an Emax [26] of 76.3%. For the same compound, the Emax [27] was 96.1%, the Emax [28] was 77.3% and the Emax [29] was 77.6%. The Emax% [30] was 101.1% and 100% and the Emax ([30]; HEK-293T) was 85 ± 7%.
